The values below come from patent US6656676B2, “Silver halide color photographic material” (Konica Corporation, priority 2001, dated 2003).

This data set in a line: pKa of the oil-soluble basic compound by alkalimetry. The class given is physicochemical. The settings on record: ethanol/water solution, alkalimetry at 25° C. The procedure: As is commonly known, the pKa value refers to a logarithmic acid dissociation constant (Ka), i.e., pKa=−logKa, which is also called an acid electrolytic dissociation exponent. The pKa value of the oil-soluble basic compound can be determined by the alkalimetry, in the following manner. Thus, 50 mg pf a compound sample is dissolved in 40 ml of ethanol and after adding 10 ml of distilled water thereto, 3 ml of a 0.5 mol/l hydrochloric solution and 12 ml of ethanol are further added. The thus prepared solution is subjected to an alkalimetry at a temperature of 25° C. using an alkaline solution (which is comprised of 2.0 g of sodium hydroxide, 200 ml of distilled water and 800 ml of ethanol) and an automatic titration apparatus (Auto Titrator AUT-301, available from TOA electronics, Ltd.).
`CCCCCCCCCCCCCCOc1ccc(N2CCCCC2)cc1` [Compd.-2] yielded a pKa of 5.

Compound `CC1(C)CC(OC(=O)CCCCCCCCC(=O)OC2CC(C)(C)NC(C)(C)C2)CC(C)(C)N1` [Compd.-3] gave a pKa of 8.7.

As to `CCCCCCCCCCCCCCOC(=O)CCN1CCN(CCC(=O)OCCCCCCCCCCCCCC)CC1` [OC-4], the pKa worked out at 6.2.

The compound `CCCCCCCCCCCCN1CCN(CCCCCCCCCCCC)CC1` [OC-6] had a pKa of 7.2.

For orientation: pKa means the pH at which an ionisable group is half protonated.
